{"source": "patent US20150190416A1", "about": "“FILAGGRIN PRODUCTION PROMOTER, THERAPEUTIC AGENT FOR DISEASES ASSOCIATED WITH REDUCTION IN PRODUCTION OF FILAGGRIN, AND METHOD FOR SCREENING FOR SAID THERAPEUTIC AGENT” (KYOTO UNIVERSITY, priority 2012, published 2015)", "key": {"[1]": {"test_system": "GPR142 mRNA", "experiment": "GPR142 mRNA expression in NHEK cells, real-time PCR (Example 4)", "format": "cell-based, human", "settings": "Compound 1 1 μM, Ca 1.2 mM, 3 days, compared to the control", "procedure": "In this example, the expression-inducing effects of Compound 1 on GPR142 mRNA and GPR22 mRNA in NHEK cells were confirmed.\n(§1) 1) 5×10^4 cells/well of NHEK cells (Invitrogen) were plated on a 24-well plate. Then, 500 μl of a culture medium containing a medium for proliferating normal human epidermal keratinocytes (HuMedia-KG2, KURABO INDUSTRIES LTD.) supplemented with hEGF (0.1 ng/ml), insulin (10 μg/ml), hydrocortisone (0.5 μg/ml), gentamycin (50 μg/ml), amphotericin B (50 ng/ml), and bovine brain pituitary extract (BPE) (0.4%, v/v) were added to the plate, and the cells were cultured under the conditions of 37° C. and 5% CO2.\n2) After culture under the conditions of the step 1) for 1 day, the medium was exchanged for the culture medium of the step 1) to which a DMSO solution of Compound 1 was added at 1 μM per well every day and the culture was conducted for 3 days. […]\n3) An extraction reagent (TRIzol™, Invitrogen) was used, and according to the manufacturer's protocol, total RNA was extracted from each of cells treated with the medicament. […] Next, real-time PCR was conducted by using the following primers and SYBR™ Premix Ex Taq (Takara) with a CFX96 real-time PCR instrument according to the manufacturer's protocol, and the amounts of GPR142mRNA and GPR22mRNA expression were measured. […]"}, "[2]": {"test_system": "GPR22", "experiment": "Blocking effect by GPR22 RNAi in NHEK cells (Reference Example 1)", "format": "cell-based, human", "settings": "calcium priming, siRNA 10 nM, Compound 1 10 nM, 1 day", "procedure": "as §1\n2) 1 day after the step 1), the medium was exchanged for the medium supplemented with calcium every day, and culture was conducted for 2 days (priming).\n3) The NHEK cells of the step 2) were transfected with 10 nM of siRNA per well of the 24-well plate by using a transfection reagent, Lipofectamine RNA Max (Invitrogen) according to the manufacturer's protocol.\n4) After culture for 1 day after the step 3), the medium was exchanged for a medium to which Compound 1 dissolved in DMSO was added at 10 nM per well on the 24-well plate, and culture was conducted for 1 day. As a control example, a solvent only (vehicle) was added.\n5) An extraction reagent (TRIzol™, Invitrogen) was used, and according to the manufacturer's protocol, total RNA was extracted from each of cells treated with the medicament. A reverse transcriptase reagent (Prime Script™, Takara) was used, and according to the manufacturer's protocol, cDNA was prepared from the total RNA. Real-time PCR was conducted by using SYBR™ Premix Ex Taq (Takara) with a CFX96 real-time PCR instrument according to the manufacturer's protocol, and the amounts of GPR22 mRNA and FLG mRNA were measured. The results of measurement are shown as a GAPDH ratio."}, "[3]": {"test_system": "FLG monomer", "experiment": "FLG monomer in FLG gene mutant mice (flaky tail mice), Western blotting (Example 13)", "format": "in vivo, mouse", "settings": "1 μM 10 μl/ear intradermally, ear epidermis after 8 days", "procedure": "In this example, the expression-increasing effect of Compound 1 (N-quinolylbenzamide derivative) on FLG monomer was confirmed by using FLG gene homozygous or heterozygous mutant mouse (Jackson Laboratory, flaky tail mice). The expression of the FLG protein was confirmed by Western blotting.\n1) Compound 1 (1 μM) dissolved in ultrapure water (milliQ, EMD Millipore) was injected intradermally to left and right ears of an FLG homozygous or heterozygous mutant mouse (10 μl/ear). As a control, ultrapure water (milliQ, EMD Millipore) was injected intradermally in the same manner.\n2) After 3 days, Compound 1 or ultrapure water was further injected intradermally in the same manner.\n3) After 8 days, ears of each mouse were cut under anesthesia, the skin of the cut ear was peeled off by pinching cartilage, and the skin on the dermal side was soaked in PBS containing 20 mM EDTA at 37° C. for 30 minutes. Next, the epidermis of the ear was peeled off and […] of Lysis buffer (0.1 M Tris-HCl (pH 9.0), 6 M Urea, 1% 2-mercapto-ethanol, 1% SDS, 1 mM EDTA, and Protease inhibitor cocktail) were added to the epidermis, and the epidermis was homogenized with an electrically powered pestle in the same manner as in the step 4) of Example 11 to prepare a sample. The sample was subjected to electrophoresis, and then to western blotting to confirm the expression of FLG monomer. […]"}}, "data": [{"smiles": "CCc1ccc(OCc2ccccc2C(=O)Nc2ccc3nc(C)cc(N)c3c2)cc1.Cl", "note": "[Compound 1, N-(4-Amino-2-methyl-6-quinolyl)-2-[(4-ethylphenoxy)methyl]benzamide hydrochloride]", "values": [{"measurement": "GPR142 mRNA expression (GAPDH ratio)", "setting": "[1]", "value": "GPR142 mRNA expression was induced"}, {"measurement": "FLG mRNA expression in the presence of GPR22 siRNA", "setting": "[2]", "value": "not suppressed"}, {"measurement": "GPR22 mRNA expression in the presence of GPR22 siRNA", "setting": "[2]", "value": "suppressed by GPR22 siRNA"}, {"measurement": "production of FLG monomer", "setting": "[3]; FLG heterozygous mutant mouse", "value": "production of the FLG monomer caused by Compound 1 was confirmed"}, {"measurement": "production of FLG monomer", "setting": "[3]; FLG homozygous mutant mouse", "value": "production of the FLG monomer was not observed"}]}]}
